Consider one compound from patent US12416052B2, “Capturing, concentrating, and detecting microbes in a sample using magnetic ionic liquids and recombinase polymerase amplification” (priority 2019, dated 2025).

Data set [1] relates to S. minnesota SLH 157 (wild type, functional OM). The experiment in a line: MIL-based whole-cell extraction (capture, wash, back-extraction, plating). Further details: species or system Salmonella enterica; key to Relative Affinity for MIL: +++++: higher losses during wash step are due to lower cellular affinity for the MIL; ++++: higher losses during wash step are due to lower cellular affinity for the MIL; +++: higher losses during wash step are due to lower cellular affinity for the MIL; ++: higher losses during wash step are due to lower cellular affinity for the MIL; +: higher losses during wash step are due to lower cellular affinity for the MIL. The method, then: (§1) A universal schematic for MIL-based cell extraction is depicted in FIG. 7B. A 1 mL volume of diluted cell suspension was added to a flat-bottomed 4-mL screw cap glass vial. Fifteen microliters of either the Ni(II) or Dy(III) MIL was added and dispersed into microdroplets by vortex agitation for 30 s. The aqueous phase was decanted following dispersive extraction, and the MIL was subjected to a brief wash step using 1 mL of nuclease-free water (Integrated DNA Technologies, Coralville, IA, USA) to ensure adequate removal of loosely or incidentally bound cells. After washing, release of viable cells from the MIL extraction phase was carried out using a “back-extraction” step accomplished through addition of 1 mL of an ionically-rich nutritive medium comprised of 20 g L^−1 tryptone and 10 g L^−1 NaCl, followed by a 120 s vortex step. After back-extraction, aliquots of the cell-enriched back-extraction medium were enumerated using the track dilution method using 100×100 mm square, gridded TSA, BSA, CA or VRBGA plates.
(§2) Following back-extraction, aliquots of the cell-enriched back-extraction medium were serially diluted in 0.1% peptone water and a 10 μL aliquot of each dilution was applied to a separate lane on square plates containing an appropriate agar medium. The plates were then tilted at an approximately 80° angle for 15 min to allow the droplets to travel toward the opposite end of the plate. The plates were incubated for 24 h at 37° C. (TSA, VRBGA), for 48 h at 37° C. (BSA) or for 24 h at 37° C. (CA). Colonies were counted and colony forming units (CFU) were determined. The enrichment factor (EF) for MIL-based extraction was calculated using Equation 1, where CMIL represents the concentration of bacteria in suspension following extraction using the MIL and CS is the initial concentration of bacteria in the sample.
(§3) To further evaluate the importance of the OM to serve as a surface to which the MIL can bind and as a protective layer from potentially deleterious activities of the Ni(II) MIL, capture and recovery of two physiological variants of S. minnesota was performed. The strains compared were S. minnesota SLH 157 (wild type, functional OM) and S. minnesota mR613 (OM mutant). […] Compared to the wild type, cells with a truncated OM are dramatically more susceptible to damage from antimicrobial agents or chemically harsh environments. To study the effect of the Ni(II) MIL exposure on the recovery of wild type and mutant strains of S. minnesota, a 1 mL aliquot of TSB was inoculated with 1×10^5 CFU mL^−1 of bacteria and spiked with 15 μL of the Ni(II) MIL. MIL-based extraction was performed and 10 μL aliquots of the back-extraction solution were enumerated using TSA and BSA plates. Average CFU counts were compared to a standard that was not exposed to the Ni(II) MIL. Extraction and recovery of S. typhimurium was also assessed. Enrichment factors were calculated.
(§4) Although all of the strains assessed were capable of being enriched by the MIL, some species were physically enriched to greater extents than others with extraction. In order to further examine the cause for this finding, the number of captured cells lost to the wash solution was investigated. The wash step is performed after the MIL enrichment step in order to remove any incidentally-adsorbed bacteria prior to back-extraction. It is hypothesized that the cells with lower enrichment factors have lower affinities for the MIL and are therefore lost in greater number to the wash solution than those having higher enrichment factors. […] The percent-loss during the wash step ranged from 47-79%. […] EF data from Table 4 for three overlapping Salmonella strains are superimposed to highlight trends in percent-loss, relative affinity and EF.

Data set [2] deals with S. minnesota mR613 (OM mutant, deep rough). The data set is described as above. On the set-up: species or system Salmonella enterica; key to Relative Affinity for MIL: +++++: higher losses during wash step are due to lower cellular affinity for the MIL; ++++: higher losses during wash step are due to lower cellular affinity for the MIL; +++: higher losses during wash step are due to lower cellular affinity for the MIL; ++: higher losses during wash step are due to lower cellular affinity for the MIL; +: higher losses during wash step are due to lower cellular affinity for the MIL. The following applies: for Percent-Loss: cells lost to wash solution. On the procedure: as §1, §2, §3, §4

In data set [3] the test system is S. enterica subsp. arizonae. Format: cell-based, Salmonella enterica. On the set-up: key to Relative Affinity for MIL: +++++: higher losses during wash step are due to lower cellular affinity for the MIL; ++++: higher losses during wash step are due to lower cellular affinity for the MIL; +++: higher losses during wash step are due to lower cellular affinity for the MIL; ++: higher losses during wash step are due to lower cellular affinity for the MIL; +: higher losses during wash step are due to lower cellular affinity for the MIL. On the procedure:
as §1, §2
(§5) In order to explore the broader utility of our approach, evaluation of additional cell types is needed. We began this extended evaluation of the Ni(II) MIL with seven representative DNA subgroups of Salmonella and eight strains of E. coli O157:H7. Briefly, a 1 mL aliquot of TSB was inoculated with 1×10^6 CFU mL^−1 of bacteria, and spiked with 15 μL of the Ni(II) MIL. MIL-based extraction was performed and 10 μL aliquots of the back-extraction solution were enumerated using TSA and BSA plates (Salmonella) or TSA plates (E. coli O157:H7). […] We later determined that VRBGA was a suitable common medium for this purpose and used this in our statistical analysis. Average CFU counts were compared to standards that were not exposed to the Ni(II) MIL. Enrichment factors were calculated for Salmonella on both non-selective (TSA) and selective agars (BSA) and for E. coli O157:H7 on non-selective agar (TSA). […] Note: As BSA is a Salmonella-specific agar E. coli O157:H7 was not plated to BSA in this example.
as §4

In data set [4] the test system is S. enterica subsp. diarizonae. Format: cell-based, Salmonella enterica. Further details: key to Relative Affinity for MIL: +++++: higher losses during wash step are due to lower cellular affinity for the MIL; ++++: higher losses during wash step are due to lower cellular affinity for the MIL; +++: higher losses during wash step are due to lower cellular affinity for the MIL; ++: higher losses during wash step are due to lower cellular affinity for the MIL; +: higher losses during wash step are due to lower cellular affinity for the MIL. The method, then: as §1, §2, §5, §4

The next data set deals with P. eucalypti 299R. The experiment in a line: MIL-based whole-cell extraction. The following applies: EF determined using Columbia Agar. On the set-up: species or system Pantoea eucalypti. On the procedure:
A universal schematic for MIL-based cell extraction is depicted in FIG. 7B. A 1 mL volume of diluted cell suspension was added to a flat-bottomed 4-mL screw cap glass vial. Fifteen microliters of either the Ni(II) or Dy(III) MIL was added and dispersed into microdroplets by vortex agitation for 30 s. The aqueous phase was decanted following dispersive extraction, and the MIL was subjected to a brief wash step using 1 mL of nuclease-free water (Integrated DNA Technologies, Coralville, IA, USA) to ensure adequate removal of loosely or incidentally bound cells. […]
Following back-extraction, aliquots of the cell-enriched back-extraction medium were serially diluted in 0.1% peptone water and a 10 μL aliquot of each dilution was applied to a separate lane on square plates containing an appropriate agar medium. […] Colonies were counted and colony forming units (CFU) were determined. The enrichment factor (EF) for MIL-based extraction was calculated using Equation 1, where CMIL represents the concentration of bacteria in suspension following extraction using the MIL and CS is the initial concentration of bacteria in the sample.

The mark [5] stands for this setting: 1×10^5 CFU mL^−1 in TSB, 15 μL MIL.
Where [6] appears, read: ranked from percent-loss in wash step.
The mark [7] stands for this setting: 1×10^6 CFU mL^−1 in TSB, 15 μL MIL.

SMILES strings stand for the structures. Several values for one entry are separate records, joined by “and”; a condition that tells them apart may be missing. Equal entries are not always repeated.

As to `CCCCCCCCCCCCCC[P+](CCCCCC)(CCCCCC)CCCCCC.O=C([CH-]C(=O)C(F)(F)F)C(F)(F)F.O=C([CH-]C(=O)C(F)(F)F)C(F)(F)F.O=C([CH-]C(=O)C(F)(F)F)C(F)(F)F.[Ni+2]` [Ni(II) MIL, [P66614^+][Ni(hfacac)3^−]], the “Enrichment Factor (BSA)” value in data set [1] (setting [5]) is 11; in data set [3] (setting [7]), 2 and 4; in data set [4] (setting [7]) it was 11. For the same compound, the “Enrichment Factor (TSA)” value is 17 in data set [1] (setting [5]), 4 in data set [2] (setting [5]), 3 in data set [3] (setting [7]) and 7 in data set [4] (setting [7]). In addition, the Percent-Loss was 59 ± 3% in data set [1] (cells lost to wash solution); 69 ± 5% in data set [2]; 79% in data set [2] (listed as MIL); 79 ± 1% in data set [3] (cells lost to wash solution); 47 ± 7% in data set [4] (cells lost to wash solution: wash counts / (wash + back-extraction counts) × 100). The “Relative Affinity for MIL” value in data set [1] (setting [6]) is given as “+++”; in data set [2] (setting [6]) it was “++”; in data set [3], “+”; in data set [4], “+++++”. For the same compound, in data set [2] (post-capture growth behavior on TSA), the “antimicrobial effect of capture process on deep rough mutant” value is “not overtly antimicrobial”. In addition, the “Enrichment Factor” value in the data set with P. eucalypti 299R was 169.
